Patent US3984390A, “Novel process for producing phleomycin group antibiotics” (Zaidan Hojin Biseibutsu Kagaku Kenkyu Kai, priority 1972, dated 1976)

What was measured:
[1] = system: Mycobacterium smegmatis 607; assay: Antimicrobial potency, cylinder agar plate method, Bleomycin A2 (copper-free base) assumed as 1000 U/mg; assay type: cell-based; settings: for Antimicrobial potency: Mycobacterium smegmatis 607
Protocol: 1. Antimicrobial potency was assayed by a cylinder agar plate method on the basis of Bleomycin A2 (copper-free base) assumed as 1000 U/mg, using Mycobacterium smegmatis 607 as test organism.
^(1) Assayed by a cylinder-agar plate method using Mycobacterium
smegmatis 607 as test organism, the potency of bleomycin A2
(copper-free base) being assumed as 1000 unit/mg.
The resulting compound has 0.65 of Rf value of the Silica gel thin layer chromatograph (CH3 OH: 10 %-CH3 COONH4 : 10 %-NH4 OH = 10 : 9 : 1) and 0.53 of Rf value of the Avicel thin layer chromatography (n-C3 H7 OH : pyridine : CH3 COOH : H2 O = 15 : 10 : 3 : 12) which are same with those of the 3-morpholinopropylaminobleomycin. The antimicrobial activity to Mycobacterium smegmatis 607 by the cylinder-agar plate method (the standard copper-free bleomycin A2 free base 1,000 U/mg) was 605 U/mg.

[2] = system: Ehrlich ascites carcinoma; assay: Antitumor activity and toxicity in ICR-SLC mouse inoculated with Ehrlich ascites carcinoma, i.p. for ten consecutive days; assay type: in vivo; settings: for Chemotherapeutic index: Table 5, ten consecutive days into peritoneal cavity, evaluated 50 days after beginning; for Chemotherapeutic index (LD50/ED50): Tables 2 to 4; for Chemotherapeutic index (LD50/ED50) / LD50 (50 % lethal dose) / ED50 (50 % effective dose): i.p., for 10 days, 72000 min; for LD50 (50 % lethal dose): Behrens-Karber method; for ED50 (50 % effective dose): maximum dose level within the range of longevity ratio of 100 to 200
Protocol: The phleomycin was administered for ten consecutive days into peritoneal cavity of a ICR-SLC mouse, into which Ehrlich ascites carcinoma had been inoculated. Fifty days after the beginning of the experiment, measurements were made for (1) the number of dead mouse owing to toxicity, (2) the number of survived mouse, (3) mean survival period in 50 days, and (4) the ratio of mean survival period to that of reference mouse multiplied by 100. The chemotherapeutic index was calculated from the values of ED50 (50 % effective dose) and LD50 (50 % lethal dose) which were obtained as given below.
ED50 value: The maximum dose level within the range of logevity ratio of 100 to 200.
LD50 value: Calculated according to Behrens-Karber method from the data of (1) and (2).
^(2) A bleomycin was administered for ten consecutive days into
peritoneal cavity of a ICR-SLC mouse, where Ehrlich ascites carcinoma had
been inoculated, and 50 days after the beginning of experiment the […]

[3] = phleomycins of Table 1, Bleomycin A2 (copper-free base) = 1000 U/mg
[4] = bleomycins of Table 5, bleomycin A2 (copper-free base) = 1000 unit/mg
[5] = 0.19 mg/kg/day for 10 days i.p.
[6] = 0.39 mg/kg/day for 10 days i.p.
[7] = 0.78 mg/kg/day for 10 days i.p.
[8] = 1.56 mg/kg/day for 10 days i.p.
[9] = 3.12 mg/kg/day for 10 days i.p.
[10] = 6.25 mg/kg/day for 10 days i.p.
[11] = 12.5 mg/kg/day for 10 days i.p.
[12] = 25.0 mg/kg/day for 10 days i.p.

Substance: 2-(Imidazol-4-yl)ethylaminophleomycin
- Antimicrobial potency [1, 3]: 678 unit/mg

Substance: 2-N,N-Diethylaminoethylaminophleomycin
- Antimicrobial potency [1, 3]: 882 unit/mg

Substance: 2-N,N-Dimethylaminoethylaminobleomycin
- Antimicrobial potency [1, 4]: 897 Unit/mg
- Chemotherapeutic index [2]: 7.8

Substance: 2-N,N-Dimethylaminoethylaminophleomycin
- Antimicrobial potency [1, 3]: 718 unit/mg

Substance: 3-(3-Morpholinopropylamino)propylaminophleomycin
- Antimicrobial potency [1, 3]: 961 unit/mg

Substance: 3-(3-N,N-Dimethylaminopropylamino)propylaminobleomycin
- Antimicrobial potency [1, 4]: 1670 Unit/mg
- Chemotherapeutic index [2]: 54

Substance: 3-(3-N-Benzylaminopropylamino)propylaminobleomycin
- Antimicrobial potency [1, 4]: 6000 Unit/mg
- Chemotherapeutic index [2]: 24.0

Substance: 3-(3-N-Benzylaminopropylamino)propylaminophleomycin
- Antimicrobial potency [1, 3]: 6710 unit/mg

Substance: 3-(3-N-Cyclohexylaminopropylamino)propylaminobleomycin
- Antimicrobial potency [1, 4]: 12335 Unit/mg
- Chemotherapeutic index [2]: 39.5

Substance: 3-(3-N-Cyclohexylaminopropylamino)propylaminophleomycin
- Antimicrobial potency [1, 3]: 8570 unit/mg

Substance: 3-(3-N-n-Butylaminopropylamino)propylaminobleomycin
- Antimicrobial potency [1, 4]: 5840 Unit/mg
- Chemotherapeutic index [2]: 59.2

Substance: 3-(3-N-n-Butylaminopropylamino)propylaminophleomycin
- Antimicrobial potency [1, 3]: 4672 unit/mg

Substance: 3-(3-Piperidinopropylamino)propylaminobleomycin
- Antimicrobial potency [1, 4]: 3580 Unit/mg
- Chemotherapeutic index [2]: 16.8

Substance: 3-(3-Piperidinopropylamino)propylaminophleomycin
- Antimicrobial potency [1, 3]: 2864 unit/mg

Substance: 3-(3-Pyrrolidinopropylamino)propylaminobleomycin
- Antimicrobial potency [1, 4]: 3286 Unit/mg
- Chemotherapeutic index [2]: 26.4

Substance: 3-(3-Pyrrolidinopropylamino)propylaminophleomycin
- Antimicrobial potency [1, 3]: 2051 unit/mg

Substance: 3-(N,N,N-Trimethylamino)propylaminophleomycin chloride
- Antimicrobial potency [1, 3]: 506 unit/mg

Substance: 3-(N,N-Dimethylaminopropylamino)propylaminophleomycin
- Antimicrobial potency [1, 3]: 1336 unit/mg

Substance: 3-Amidinopropylaminophleomycin
- Antimicrobial potency [1, 3]: 2500 unit/mg

Substance: 3-Guanidinopropylaminophleomycin
- Antimicrobial potency [1, 3]: 2300 unit/mg

Substance: 3-Morpholinopropylaminobleomycin
- Antimicrobial activity to Mycobacterium smegmatis 607 ([1]; Referential Example, standard copper-free bleomycin A2 free base 1,000 U/mg): 605 U/mg
- Antimicrobial potency [1, 4]: 592 Unit/mg
- Average longevity (mean survival period in 50 days) [2, 5]: 11.8
- Longevity ratio (mean survival period to that of reference mouse multiplied by 100) [2, 5]: 97
- Toxicity, number dead/total number [2, 5]: 0/5
- Viability (after 50 days), number survived/total number [2, 5]: 0/5
- Average longevity (mean survival period in 50 days) [2, 6]: 11.8
- Longevity ratio (mean survival period to that of reference mouse multiplied by 100) [2, 6]: 97
- Toxicity, number dead/total number [2, 6]: 0/5
- Viability (after 50 days), number survived/total number [2, 6]: 0/5
- Average longevity (mean survival period in 50 days) [2, 7]: 33.0
- Longevity ratio (mean survival period to that of reference mouse multiplied by 100) [2, 7]: 270
- Toxicity, number dead/total number [2, 7]: 0/5
- Viability (after 50 days), number survived/total number [2, 7]: 2/5
- Average longevity (mean survival period in 50 days) [2, 8]: 36.6
- Longevity ratio (mean survival period to that of reference mouse multiplied by 100) [2, 8]: 300
- Toxicity, number dead/total number [2, 8]: 0/5
- Viability (after 50 days), number survived/total number [2, 8]: 3/5
- Average longevity (mean survival period in 50 days) [2, 9]: 45.2
- Longevity ratio (mean survival period to that of reference mouse multiplied by 100) [2, 9]: 370
- Toxicity, number dead/total number [2, 9]: 0/5
- Viability (after 50 days), number survived/total number [2, 9]: 4/5
- Average longevity (mean survival period in 50 days) [2, 10]: 34.2
- Longevity ratio (mean survival period to that of reference mouse multiplied by 100) [2, 10]: 280
- Toxicity, number dead/total number [2, 10]: 2/5
- Viability (after 50 days), number survived/total number [2, 10]: 3/5
- Average longevity (mean survival period in 50 days) [2, 11]: 30.4
- Longevity ratio (mean survival period to that of reference mouse multiplied by 100) [2, 11]: 249
- Toxicity, number dead/total number [2, 11]: 4/5
- Viability (after 50 days), number survived/total number [2, 11]: 1/5
- Average longevity (mean survival period in 50 days) [2, 12]: 12.4
- Longevity ratio (mean survival period to that of reference mouse multiplied by 100) [2, 12]: 102
- Toxicity, number dead/total number [2, 12]: 5/5
- Viability (after 50 days), number survived/total number [2, 12]: 0/5
- Chemotherapeutic index [2]: 21.7
- Chemotherapeutic index (LD50/ED50) [2]: 12.1
- LD50 (50 % lethal dose) [2]: 9.4 mg/kg/day
- ED50 (50 % effective dose) [2]: 0.78 mg/kg/day

Substance: 3-Morpholinopropylaminophleomycin
- Antimicrobial potency [1, 3]: 474 unit/mg
- Average longevity (mean survival period in 50 days) [2, 5]: 20.6
- Longevity ratio (mean survival period to that of reference mouse multiplied by 100) [2, 5]: 167
- Toxicity, number dead/total number [2, 5]: 0/5
- Viability (after 50 days), number survived/total number [2, 5]: 0/5
- Average longevity (mean survival period in 50 days) [2, 6]: 16.2
- Longevity ratio (mean survival period to that of reference mouse multiplied by 100) [2, 6]: 133
- Toxicity, number dead/total number [2, 6]: 0/5
- Viability (after 50 days), number survived/total number [2, 6]: 0/5
- Average longevity (mean survival period in 50 days) [2, 7]: 22.8
- Longevity ratio (mean survival period to that of reference mouse multiplied by 100) [2, 7]: 187
- Toxicity, number dead/total number [2, 7]: 0/5
- Viability (after 50 days), number survived/total number [2, 7]: 0/5
- Average longevity (mean survival period in 50 days) [2, 8]: 35.0
- Longevity ratio (mean survival period to that of reference mouse multiplied by 100) [2, 8]: 287
- Toxicity, number dead/total number [2, 8]: 0/5
- Viability (after 50 days), number survived/total number [2, 8]: 2/5
- Average longevity (mean survival period in 50 days) [2, 9]: 49.2
- Longevity ratio (mean survival period to that of reference mouse multiplied by 100) [2, 9]: 403
- Toxicity, number dead/total number [2, 9]: 0/5
- Viability (after 50 days), number survived/total number [2, 9]: 5/5
- Average longevity (mean survival period in 50 days) [2, 10]: 50.0
- Longevity ratio (mean survival period to that of reference mouse multiplied by 100) [2, 10]: 410
- Toxicity, number dead/total number [2, 10]: 0/5
- Viability (after 50 days), number survived/total number [2, 10]: 5/5
- Average longevity (mean survival period in 50 days) [2, 11]: 39.2
- Longevity ratio (mean survival period to that of reference mouse multiplied by 100) [2, 11]: 321
- Toxicity, number dead/total number [2, 11]: 2/5
- Viability (after 50 days), number survived/total number [2, 11]: 3/5
- Average longevity (mean survival period in 50 days) [2, 12]: 26.2
- Longevity ratio (mean survival period to that of reference mouse multiplied by 100) [2, 12]: 215
- Toxicity, number dead/total number [2, 12]: 5/5
- Viability (after 50 days), number survived/total number [2, 12]: 0/5
- Chemotherapeutic index (LD50/ED50) [2]: 19.2
- Prolongation effect on the survival period of ICR-SLC mouse inoculated with Ehrlich ascites carcinoma ([2]; as shown in Tables 2 and 3): distinct prolongation effect
- LD50 (50 % lethal dose) [2]: 15.0 mg/kg/day
- ED50 (50 % effective dose) [2]: 0.78 mg/kg/day
- Chemotherapeutic index compared with 3-morpholinopropylaminobleomycin ([2]; same terminal amine Y): practically same order

Substance: 3-N,N-Diethylaminopropylaminobleomycin
- Antimicrobial potency [1, 4]: 1036 Unit/mg
- Chemotherapeutic index [2]: 34.5

Substance: 3-N,N-Diethylaminopropylaminophleomycin
- Antimicrobial potency [1, 3]: 829 unit/mg

Substance: 3-N,N-Dimethylaminopropylaminobleomycin
- Antimicrobial potency [1, 4]: 806 Unit/mg
- Chemotherapeutic index [2]: 20.4

Substance: 3-N,N-Dimethylaminopropylaminophleomycin
- Antimicrobial potency [1, 3]: 648 unit/mg

Substance: 3-N-(1-Phenylethyl)aminopropylaminobleomycin
- Antimicrobial potency [1, 4]: 5320 Unit/mg
- Chemotherapeutic index [2]: 59.2

Substance: 3-N-(1-Phenylethyl)aminopropylaminophleomycin
- Antimicrobial potency [1, 3]: 4030 unit/mg

Substance: 3-N-(3,3-Dichloropropyl)aminopropylaminophleomycin
- Antimicrobial potency [1, 3]: 3120 unit/mg

Substance: 3-N-(3-Hydroxypropyl)aminopropylaminobleomycin
- Antimicrobial potency [1, 4]: 1021 Unit/mg
- Chemotherapeutic index [2]: 29.6

Substance: 3-N-(3-Hydroxypropyl)aminopropylaminophleomycin
- Antimicrobial potency [1, 3]: 845 unit/mg

Substance: 3-N-Benzylaminopropylaminophleomycin
- Antimicrobial potency [1, 3]: 3373 unit/mg

Substance: 3-N-Cyclohexylaminopropylaminophleomycin
- Antimicrobial potency [1, 3]: 4284 unit/mg

Substance: 3-N-Methylaminopropylaminophleomycin
- Antimicrobial potency [1, 3]: 688 unit/mg

Substance: 3-N-Propenylaminopropylaminophleomycin
- Antimicrobial potency [1, 3]: 2100 unit/mg

Substance: 3-N-n-Butylaminopropylaminophleomycin
- Antimicrobial potency [1, 3]: 3535 unit/mg

Substance: 3-N-tert-Butylaminopropylaminophleomycin
- Antimicrobial potency [1, 3]: 3520 unit/mg

Substance: 3-Piperazinopropylaminophleomycin
- Antimicrobial potency [1, 3]: 581 unit/mg

Substance: 3-Piperidinopropylaminophleomycin
- Antimicrobial potency [1, 3]: 1006 unit/mg

Substance: 3-Pyrrolidinopropylaminophleomycin
- Antimicrobial potency [1, 3]: 853 unit/mg

Substance: 3-[3-N-(1-phenylethyl)aminopropylamino]propylaminophleomycin
- Antimicrobial potency [1, 3]: 7208 unit/mg
